From patent US12172919B2, “Deconstruction of oilsand materials using ionic liquids” (ADJACENCY LABS CORP., priority 2017, dated 2024) come the findings set out here.

Like-named read-outs stand apart in the source and are kept apart here.

Data set [1] can be described thus: In-situ extraction: IL injection through column packed with oil sand. Conditions: 100 g oil sand, 0.5 mL/min for 26 h, 24 h soak, 2 h re-injection. On the procedure:
100 g dry oil sand was packed into a steel tube (1.5×30 cm). The packed steel tube then was mounted into apparatus to allow injection of desired fluid through the oil sand while collecting the effluent for subsequent analysis (FIG. 61). The injection of [C8NH3][Oleate] was continuous for 26 h at an injection rate of 0.5 mL/min, and the injection pressure was stabilized in the range 1940-2000 kPa. The breakthrough time was around 35 min. This indicates the pore volume was around 17.5 ml. The total amount of [C8NH3][Oleate] injected was around 783 ml. […] At the first 2.5 h of injection, the bitumen recovery is significant, and the fluid recovered is black. However, with continuing injection the black intensity decreases gradually till the effluent is clear [C8NH3][Oleate] after 26 h.
After 26 h of injection, the pump was stopped and the [C8NH3][Oleate]/Oil sand system in the steel column was left to soak for 24 h. Then injection was re-started with the same injection rate (0.5 mL/min) and the pressure stabilized at around 1850 kPa (similar level before soaking). The blackness of the fluid samples recovered during 2 h of injection post-soaking is not as intense as that during the same time for [C8NH3][Oleate] injection into the fresh oil sand. […]
After terminating the experiment, the bitumen still in the oil sand was quantified using Dean Stark.

Data set [2] can be described thus: Thermogravimetric analysis (TGA). The class given is physicochemical.

As for octylammonium oleate [[C8NH3][Oleate]], the “bitumen remaining in oil sand by Dean Stark extraction, of the initial amount of bitumen” value in data set [1] is listed as 47.34%. The same substance yielded a thermal decomposition temperature in data set [2] of 129 °C. Moreover, the “[C8NH3][Oleate] solubility” value by setting is: (solvent: Acetonitrile) “− (Insoluble (0.2 g in 3 mL solvent))”; (solvent: Chloroform) “+ (Soluble (0.2 g in 0.5 mL solvent))”; (solvent: DI water) “− (Insoluble (0.2 g in 3 mL solvent))”; (solvent: Dichlorobenzene) “+ (Soluble (0.2 g in 0.5 mL solvent))”; (solvent: Dichloromethane) “+ (Soluble (0.2 g in 0.5 mL solvent))”; (solvent: Dimethyl sulfoxide) “− (Insoluble (0.2 g in 3 mL solvent))”. Further, the “[C8NH3][Oleate] solubility” value by setting is: (solvent: Hexane) “+ (Soluble (0.2 g in 0.5 mL solvent))”; (solvent: Methanol) “+ (Soluble (0.2 g in 0.5 mL solvent))”; (solvent: Xylene) “+ (Soluble (0.2 g in 0.5 mL solvent))”.
